Results as given in patent US8501732B2, “Aminomethyl quinolone compounds” (Hoffmann-La Roche Inc., priority 2011, dated 2013).
pEC50, pIC50: −log10 of the molar value. Structures can show the parent of a compound that is named as a salt.

What was measured:
JNK1 = JNK1 (Homo sapiens (Human), UniProt P45983); test: In Vitro JNK1 Assay (TR-FRET, phosphorylation of GST-c-Jun); type: biochemical; conditions: 0.2 nM active JNK1 kinase, 26.7 nM GST-c-Jun, 2 μM ATP, 30 min at room temperature
Outline: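 IC50 derived from percent inhibition across 10 serially diluted concentrations, with TR-FRET detection of phospho-c-Jun via an anti-phospho-c-Jun antibody after EDTA stop. Substrate was GST-c-Jun 1-79, reacted 30 min at room temperature in pH 7.0 HEPES buffer with MgCl2, DTT, vanadate and BSA.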

[1] = tested on: phospho(Ser63)-c-jun in HK-2 cells; test: Cell-Based Assay for JNK Inhibitors (in-cell ELISA, phospho(Ser63)-c-jun after TNFα); conditions: HK-2 cells (human proximal tubule cells), 60 minutes compound, then 10 ng/mL TNFα for 30 minutes
Procedure: Cell-Based Assay for JNK Inhibitors
The cell-based assay employed the in-cell ELISA method to determine the ability of compounds to prevent the generation of phospho(Ser63)-c-jun in HK-2 cells (human proximal tubule cells) in response to stimulation with tumor necrosis factor α (TNFα). In brief, for quantification of phospho(Ser63)-c-jun, the cells (in 96-well format) were fixed and permeablized then incubated sequentially with a rabbit anti-phospho-c-jun First Antibody specific for the presence of the phospho-Ser63 epitope and a donkey anti-rabbit IgG Second Antibody linked to horseradish peroxidase (HRP) for colorimetric quantitation of binding. […] Blank wells received no TNFα stimulation or compound. Additional Control wells received TNFα stimulation, but no compound.
Stock cultures of HK-2 cells (ATCC, Manassas, Va.) were grown under a 5% CO2/[…] atmosphere at 37 degrees C. in Keratinocyte-SFM medium (KSFM, Invitrogen, Grand Island, N.Y.) containing 5 μg/L epidermal growth factor and 5 mg/L bovine pituitary extract (both supplied with the medium), additionally supplemented with 10% (v/v) fetal calf serum (FCS; Invitrogen, Grand Island, N.Y.) and 1% (v/v) antibiotic-antimycotic (ABAM: Sigma, St. Louis, Mo.). For assays, cells were seeded in collagen coated 96-well polystyrene plates (BD Biosciences, Franklin Lakes, N.J.) at a density of 40,000 cells/well and cultured for 24 h in the same medium (100 μL/well) followed by a further 16-24 h in 100 μL of similar medium, but without FCS. […] Plates were then allowed to stand at room temperature for 20 minutes before being washed with 200 μL/well of PBS. (Further steps were performed immediately or the plates were stored at 4 degrees C. and the assay completed the next day.) To each well was added 100 μL 1% (v/v) TritonX-100 (Sigma, St. Louis, Mo.) in PBS followed by 20 minutes standing at room temperature, washing with 200 μL/well PBS, the addition of 100 μL/well of Quenching buffer (1% (v/v) hydrogen peroxide (Sigma, St. Louis, Mo.) and 0.1% (w/v) sodium azide (Fisher Scientific, Fair Lawn, N.J.)) in PBS and a further 20 minutes at room temperature. Plates were then washed twice with 200 μL/well of 0.1% (v/v) Tween-20 (Teknova, Hollister, Calif.) in PBS before addition of 200 μL/well of 2% BSA/0.1% Tween-20 in PBS and a further 1 hour at room temperature. […] After a further one hour, rabbit anti-phospho-c-jun-Ser63 is added directly to the solution in the Blank wells resulting in 1:250 dilution of this antibody. Plates were then placed on a slowly rotating platform at 4 degrees C. overnight. Wells were then washed thrice with 200 μL/well PBS/0.1% Tween-20. After addition of the third wash, the plates were placed on a slowly rotating platform for 15 minutes at room temperature. The final PBS/Tween20 wash was then replaced with 100 μL/well of donkey anti-rabbit HRP-labeled Second Antibody (Jackson ImmunoResearch Laboratory, West Grove, Pa.) diluted 1:10,000 in Antibody Dilution Buffer and the plates placed on a slowly rotating platform for 1 hour at room temperature. Wells were then washed four times with 200 μL/well PBS/0.1% Tween-20, including slow rotation for 30 minutes for the third wash and 10 minutes for the final wash. The wells were then washed once with 200 μL PBS without Tween-20. […] Absorbance was determined at a 450 nm wavelength using a spectrophotometer (Molecular Devices SpectraMax 250).

Chain of JNK1 (P45983 whole entry): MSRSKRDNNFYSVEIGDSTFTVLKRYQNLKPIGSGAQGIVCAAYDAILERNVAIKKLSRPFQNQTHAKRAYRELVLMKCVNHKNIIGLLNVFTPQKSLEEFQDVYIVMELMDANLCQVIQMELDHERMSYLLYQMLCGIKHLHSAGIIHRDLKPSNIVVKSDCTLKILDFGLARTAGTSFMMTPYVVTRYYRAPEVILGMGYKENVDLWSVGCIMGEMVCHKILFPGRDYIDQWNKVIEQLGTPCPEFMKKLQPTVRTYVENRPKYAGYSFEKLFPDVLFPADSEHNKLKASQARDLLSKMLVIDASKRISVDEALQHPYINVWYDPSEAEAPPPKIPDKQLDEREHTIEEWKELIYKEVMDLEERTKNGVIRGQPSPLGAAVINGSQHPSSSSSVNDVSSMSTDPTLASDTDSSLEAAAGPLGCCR

Row | pIC50 (JNK1) | pEC50 [1] | Structure (SMILES)
1 | 7.54 | 5.28 | O=C(NCc1c(-c2ncco2)n(-c2ccccc2)c2ncccc2c1=O)c1ccc(N2CCOCC2)nc1 [Example I-10, 6-Morpholin-4-yl-N-(2-oxazol-2-yl-4-oxo-1-phenyl-1,4-dihydro-[1,8]naphthyridin-3-ylmethyl)-nicotinamide]
2 | 7.33 | 4.82 | Cn1cc(C(=O)NCc2c(-c3ncco3)n(-c3ccccc3)c3ncccc3c2=O)cn1 [Example I-11, 1-Methyl-1H-pyrazole-4-carboxylic acid (2-oxazol-2-yl-4-oxo-1-phenyl-1,4-dihydro-[1,8]naphthyridin-3-ylmethyl)-amide]
3 | 7.46 | 4.43 | CN(C)C(=O)c1c(CNC(=O)c2ccc(N3CCOCC3)nc2)c(=O)c2ccc(Cl)cc2n1-c1ccccc1 [Example I-13, 7-Chloro-3-{[(6-morpholin-4-yl-pyridine-3-carbonyl)-amino]-methyl}-4-oxo-1-phenyl-1,4-dihydro-quinoline-2-carboxylic acid dimethylamide]
4 | 7.44 | 4.60 | CN(C)C(=O)c1c(CNC(=O)c2cnc(N3CCOCC3)s2)c(=O)c2ccc(Cl)cc2n1-c1ccccc1 [Example I-14, 7-Chloro-3-{[(2-morpholin-4-yl-thiazole-5-carbonyl)-amino]-methyl}-4-oxo-1-phenyl-1,4-dihydro-quinoline-2-carboxylic acid dimethylamide]
5 | 7.19 | 4.27 | COc1ccc(C(=O)NCc2c(C(=O)N(C)C)n(-c3ccccc3)c3cc(Cl)ccc3c2=O)cc1 [Example I-15, 7-Chloro-3-[(4-methoxy-benzoylamino)-methyl]-4-oxo-1-phenyl-1,4-dihydro-quinoline-2-carboxylic acid dimethylamide]
6 | 6.48 | 4.60 | CN(C)C(=O)c1c(CNC(=O)c2ccn(Cc3ccccc3)c(=O)c2)c(=O)c2ccc(Cl)cc2n1-c1ccccc1 [Example I-22, 3-{[(1-Benzyl-2-oxo-1,2-dihydro-pyridine-4-carbonyl)-amino]-methyl}-7-chloro-4-oxo-1-phenyl-1,4-dihydro-quinoline-2-carboxylic acid dimethylamide]
7 | 7.01 | 4.85 | CN(C)C(=O)c1c(CNC(=O)c2cnc(N3CCC(CO)CC3)s2)c(=O)c2ccc(Cl)cc2n1-c1ccccc1 [Example I-26]
8 | 7.09 | 5.10 | CN(C)C(=O)c1c(CNC(=O)c2cnc(N3CCC(CCO)CC3)s2)c(=O)c2ccc(Cl)cc2n1-c1ccccc1 [Example I-27, 7-Chloro-3-[4({2-[4-(2-hydroxy-ethyl)-piperidin-1-yl]-thiazole-5-carbonyl}-amino)-methyl]-4-oxo-1-phenyl-1,4-dihydro-quinoline-2-carboxylic acid dimethylamide]
9 | 7.04 | 5.01 | CN(C)C(=O)c1c(CNC(=O)c2ccc(N3CCCCC3)nc2)c(=O)c2ccc(Cl)cc2n1-c1ccccc1 [Example I-28, 3,4,5,6-Tetrahydro-2H-[1,2′]bipyridinyl-5′-carboxylic acid (7-chloro-2-dimethylcarbamoyl-4-oxo-1-phenyl-1,4-dihydro-quinolin-3-ylmethyl)-amide trifluoroacetate salt]

Second part, the compound before the results:

Row | Structure (SMILES) | pIC50 (JNK1) | pEC50 [1]
10 | NC(=O)c1ccc(C(=O)NCc2c(-c3ncco3)n(-c3ccccc3)c3cc(Cl)ccc3c2=O)cc1 [Example I-4, N-(7-Chloro-2-oxazol-2-yl-4-oxo-1-phenyl-1,4-dihydro-quinolin-3-ylmethyl)-terephthalamide] | 7.85 | 5.52
11 | O=C(NCc1c(-c2ncco2)n(-c2ccccc2)c2cc(Cl)ccc2c1=O)c1ccc(N2CCCCC2)nc1 [Example I-7, 3,4,5,6-Tetrahydro-2H-[1,2′]bipyridinyl-5′-carboxylic acid (7-chloro-2-oxazol-2-yl-4-oxo-1-phenyl-1,4-dihydro-quinolin-3-ylmethyl)-amide] | 7.85 | 5.35
12 | O=C(NCc1c(-c2ncco2)n(-c2ccccc2)c2cc(Cl)ccc2c1=O)c1ccc2c(c1)OCO2 [Example I-8, Benzo[1,3]dioxole-5-carboxylic acid (7-chloro-2-oxazol-2-yl-4-oxo-1-phenyl-1,4-dihydro-quinolin-3-ylmethyl)-amide] | 7.60 | 5.38
13 | O=C(NCc1c(-c2ncco2)n(-c2ccccc2)c2ncccc2c1=O)c1ccn(Cc2ccccc2)c(=O)c1 [Example I-9, 1-Benzyl-2-oxo-1,2-dihydro-pyridine-4-carboxylic acid (2-oxazol-2-yl-4-oxo-1-phenyl-1,4-dihydro-[1,8]naphthyridin-3-ylmethyl)-amide] | 8.40 | 5.92
14 | O=C(NCc1c(-c2ncco2)n(-c2ccccc2)c2ncccc2c1=O)c1ccc(N2CCC(CO)CC2)nc1 [Example I-12, 4-Hydroxymethyl-3,4,5,6-tetrahydro-2H-[1,2′]bipyridinyl-5′-carboxylic acid (2-oxazol-2-yl-4-oxo-1-phenyl-1,4-dihydro-[1,8]naphthyridin-3-ylmethyl)-amide] | 8.15 | 5.60
15 | CN(C)C(=O)c1c(CNC(=O)c2ccc3ncsc3c2)c(=O)c2ccc(Cl)cc2n1-c1ccccc1 [Example I-16, 3-{[(Benzothiazole-6-carbonyl)-amino]-methyl}-7-chloro-4-oxo-1-phenyl-1,4-dihydro-quinoline-2-carboxylic acid dimethylamide] | 7.18 | 4.46
16 | CN(C)C(=O)c1c(CNC(=O)c2ccc(S(C)(=O)=O)cc2)c(=O)c2ccc(Cl)cc2n1-c1ccccc1 [Example I-19, 7-Chloro-3-[(4-methanesulfonyl-benzoylamino)-methyl]-4-oxo-1-phenyl-1,4-di-hydro-quinoline-2-carboxylic acid dimethylamide] | 6.74 | 4.52
17 | CN(C)C(=O)c1c(CNC(=O)c2cnn(C)c2)c(=O)c2ccc(Cl)cc2n1-c1ccccc1 [Example I-23, 7-Chloro-3-{[(1-methyl-1H-pyrazole-4-carbonyl)-amino]-methyl}-4-oxo-1-phenyl-1,4-dihydro-quinoline-2-carboxylic acid dimethylamide] | 6.11 | 4.06
18 | CN(C)C(=O)c1c(CNC(=O)c2ccc(N3CCC(CO)CC3)nc2)c(=O)c2ccc(Cl)cc2n1-c1ccccc1 [Example I-24, 4-Hydroxymethyl-3,4,5,6-tetrahydro-2H-[1,2′]bipyridinyl-5′-carboxylic acid (7-chloro-2-dimethylcarbamoyl-4-oxo-1-phenyl-1,4-dihydro-quinolin-3-ylmethyl)-amide] | 6.85 | 4.96
19 | CN(C)C(=O)c1c(CNC(=O)c2ccc(N3CCC(CCO)CC3)nc2)c(=O)c2ccc(Cl)cc2n1-c1ccccc1 [Example I-25, 4-(2-Hydroxy-ethyl)-3,4,5,6-tetrahydro-2H-[1,2′]bipyridinyl-5′-carboxylic acid (7-chloro-2-dimethylcarbamoyl-4-oxo-1-phenyl-1,4-dihydro-quinolin-3-ylmethyl)-amide] | 7.29 | 5.02
20 | O=C(NCc1cn(-c2ccccc2)c2cc(Cl)ccc2c1=O)c1ccn(Cc2ccccc2)c(=O)c1 [Example I-29, 1-Benzyl-2-oxo-1,2-dihydro-pyridine-4-carboxylic acid (7-chloro-4-oxo-1-phenyl-1,4-dihydro-quinolin-3-ylmethyl)-amide] | 7.89 | 5.30
